{"source": "patent US9040485B2", "about": "“Synthetic analogues of neural regeneration peptides” (Curonz Holdings Company Limited, priority 2007, dated 2015)", "key": {"cerebellar microexplants": {"test_system": "cerebellar microexplants", "test": "Neuronal survival of cerebellar microexplants exposed to the neurotoxin 3-NP (cells having neurites counted)", "format": "cell-based, Wistar rat", "details": "for neuroprotection after exposure to 3-NP, larger set of data: study of 6 in each group, FIG. 4", "procedure": "(§1) Laminated cerebellar cortices of the two hemispheres were explanted from a P3, P4, P7 or P8 Wistar rat, cut into small pieces in GBSS with 0.65% D(+)glucose solution, and triturated by a 0.4 mm gauge needle and subsequently pressed through a 125 μm pore size sieve. The obtained microexplants were centrifuged (60×g) 2 times for a medium exchange into serum-free BSA-supplemented START V-medium (Biochrom). Finally, the microexplants were reconstituted in 500 μl STARTV-medium. For culturing, 38 μl of the cell suspension was incubated for 1 hour on a poly-D-lysine-coated cover slip in a 35 mm Petri dish under an atmosphere comprising 5% CO2 in air and 100% humidity at 34° C. Subsequently, the injuring toxins (as described below), NRP analogues and 1 ml of STARTV-medium were added, and the cultures were evaluated after 2-3 days of culture.\n(§2) General methods for toxicological and drug administration experiments were designed such that 1/100 parts of toxin and neuroprotective drug were administered simultaneously to the freshly prepared cerebellar microexplants. Glutamate was prepared as a 50 mM stock solution in MilliQ water while 50 mM 3-nitropropionic acid (3-NP) was pH-adjusted (pH 6.8-7.2) in MilliQ water. The concentrations of the oxidative stress inducing toxin, 3-nitropropionic acid (3-NP), and the excitotoxin, glutamate, in the assay were at concentrations of 0.5 mM each. Lyophilized NRP peptides were reconstituted in PBS or 100 μg/ml human transferrin as a 10 μM stock solution. Subsequently, serial dilutions were made. Cerebellar microexplants were cultivated for 48-72 hours at 34° C., 5% CO2 in air and 100% humidity before they were fixed by increasing amounts of paraformaldehyde (0.4%, 1.2%, 3% and 4%—each treatment 2-3 min).\nUsing the toxins described above, cerebellar explants were exposed for 24 hours, at the beginning of culturing to dilutions of NRP (survival assay) or NRP and 0.1 μM BrdU (proliferation assay). Subsequently, 80% of the medium was changed without addition of new toxins and NRPs. The cerebellar cultures were fixed as described above after 3 days in vitro. The detection of the incorporated BrdU level is performed as described previously.\nFor statistical analysis of survival, four fields (each field having an area of 0.65 mm^2) of each fixed cerebellar culture with the highest cell densities were chosen, and cells displaying neurite outgrowth were counted (survival assay).\nWe exposed cell cultures to vehicle alone (open column) the neurotoxin 3-NP alone (shaded column) to 3-NP plus different concentrations of SEQ ID NO:5 (hatched columns) or to 3-NP plus different concentrations of a non-substituted NRP, SEQ ID NO:1 (dark shaded column). We then counted the numbers of cells having neurites as an indicator of neuronal cell survival."}, "cerebellar explants": {"test_system": "cerebellar explants", "test": "Storage stability: peptide stored 9 weeks at −20° C. or −4° C., then tested for neuroprotection against 3-NP in cerebellar explants", "format": "cell-based, Wistar rat", "details": "for stability in storage (retention of neuroprotective activity): 9 weeks, −4° C. compared with −20° C.; for neuroprotective effect against 3-NP after storage at −4° C.: stored 9 weeks at −4° C.; for neuroprotective effect against 3-NP after storage at −4° C. / neuroprotective effect against 3-NP after storage at −20° C.: four concentrations 10^−13 M to 10^−10 M; for neuroprotective effect against 3-NP after storage at −20° C.: stored 9 weeks at −20° C.", "procedure": "as §1, §2\nTo determine the stability of NRPs of this invention in storage, we carried out a series of studies using SEQ ID NO:1. In this study, we synthesized SEQ ID NO:1 and then stored the peptide at temperatures of either −20° C. or −4° C. for nine (9) weeks. We then tested the NRP for efficacy in protecting cerebellar neurons against the neurotoxic effect of 3-NP as described above. Cerebellar explants were treated with vehicle alone (open column), the neurotoxic agent 3-NP alone (light stippled column), or 3-NP plus four concentrations of SEQ ID NO:1 that had been stored for 9 weeks at −20° C., or at −4° C.\nIn this study, we determined the stability of a substituted NRP, SEQ ID NO:5, in different storage conditions and at different concentrations as with Example 3 above. We synthesized SEQ ID NO:5 and then stored the peptide for 9 weeks at a temperature of either −20° C. or −4° C. We then tested the efficacy of SEQ ID NO:5 in decreasing the neurotoxic effect of 3-NP as described in Examples 2 and 3 above."}, "[1]": {"test_system": "mouse model of experimental autoimmune encephalitis (EAE)", "test": "MOG-induced experimental autoimmune encephalitis (EAE) model of multiple sclerosis, clinical score of neurological impairment", "format": "in vivo, mice, strain C57B1/6J", "details": "0.1 μg peptide/animal (4.16 μg/kg) i.p. daily for 14 days from day 17 after MOG-immunization; outcome 37 days after first treatment; p<0.01 versus treatment day 1 score; FIG. 5"}, "[2]": {"test_system": "SOD-1 mutant (ALS) transgenic mice", "test": "Survival of SOD-1 mutant (ALS) transgenic mice, Kaplan-Meier", "format": "in vivo", "source_text": "In this series of studies, we examined the effects of SEQ ID NO:5 on mice having a genetic defect (SOD-1) that produces a motor neuron disease similar to that in humans with ALS Animals with this disorder show a progressive loss of motor coordination over time, and ultimately die prematurely of the disease. This animal system is useful in studying effects of agents potentially useful in treating ALS in human beings. Thus, results obtained are highly predictive of results obtained in humans with ALS.\nMice were randomly allocated to receive either vehicle or SEQ ID NO:5 from the point of disease onset onwards.\nSEQ ID NO:5 treatment (40 μg/kg, given 1/day, i.p. (FIG. 8A) or 0.4 μg/kg, given 1/day, i.p. (FIG. 8B)) was started at the day of onset of the disease."}, "[3]": {"test_system": "rats with peripheral neuropathy induced by pyridoxine", "test": "Pyridoxine-induced peripheral neuropathy, precision beam walk motor deficit score", "format": "in vivo", "details": "for motor deficits (beam walking score) versus vehicle: Experiment I: pyridoxine 800 mg/kg/day 8 days, four days after cessation of pyridoxine", "procedure": "Male Sprague-Dawley rats were used and were weighed 278-349 g at the commencement of intoxication with pyridoxine chloride. Before intoxication, rats were habituated to walk across a beam at daily intervals for a week.\nExperiment I: Rats were administered 400 mg/kg pyridoxine chloride dissolved in sterile distilled water adjusted to neutral pH intraperitoneally (i.p) twice daily for 8 days and concurrently the peptide having the sequence SEQ ID NO:5 was administered i.p. for at total of 10 days.\nExperiment II: Rats were administered a higher dose of pyridoxine (1200 mg/kg/day) over a shorter period of time. Pyridoxine chloride dissolved in sterile distilled water adjusted to neutral pH was administered i.p. to the rats at a dose of 600 mg/kg twice daily for 4 days. Concurrently the peptide having the sequence SEQ ID NO:5 was administered for 4 days. On day 5, rats were tested for motor deficits.\nMotor deficits after pyridoxine intoxication and effects of SEQ ID NO:5 were analyzed using a precision beam walk. Seven subsequent foot steps across the 1.5 m long beam were videotaped and according to the positioning of the foot tarsus, these steps were scored between 1 to 4 (1—hind leg tarsus above the beam median; 2—tarsus was touching the upper half of beam medium; 3-tarsus was touching the lower half of beam median and 4—tarsus below the beam median). The score results of all seven steps were added together. A score of 30 was given if the animal was only able to stand on the beam but was unable to walk. In the event of inability to stand on the beam a score of 32 was awarded.\nExperiment I: The two concentrations tested for SEQ ID NO:5 were 40 ng/kg/day and 4 μg/kg/day.\nExperiment II: Saline and SEQ ID NO:5 at a dose of 4 μg/kg/day were tested.\nMotor deficit data were assessed by two-way analysis of variance and Bonferroni post-hoc test. Statistical significance was concluded if p<0.05 between drug treatment cohorts and vehicle treatment."}}, "note": "Entries after “also recorded” stand apart in the source; their conditions may differ. Where a SMILES comes first, the peptide text is derived from it. [ ]: non-standard residue; d: D form. Aib = CC(C)(N)C(=O)O"}
{"compound": "NH2-G^1RRAAPGRAGG^11-NH2 (H-GRRAAPGRAGG-NH2; listed as Homo sapiens) [SEQ ID NO:1, un-substituted comparator, reference compound]", "values": [{"measurement": "decrease of neurotoxic effects of 3-NP (cells having neurites)", "setting": "cerebellar microexplants; peptide at 10 fM or 1 pM, 0.5 mM 3-NP, p<0.001, n=4, FIG. 1", "result": "significantly decreased the neurotoxic effects of 3-NP"}, {"measurement": "neuroprotection after exposure to 3-NP, larger set of data", "setting": "cerebellar microexplants", "result": "protect neurons from dying"}, {"measurement": "stability in storage (retention of neuroprotective activity)", "setting": "cerebellar explants", "result": "loses activity over the 9-week period"}, {"measurement": "neuroprotective effect against 3-NP after storage at −4° C.", "setting": "cerebellar explants", "result": "little decrease in neurotoxic effect of 3-NP"}, {"measurement": "neuroprotective effect against 3-NP after storage at −20° C.", "setting": "cerebellar explants", "result": "neuroprotective effects at all concentrations tested"}]}
{"compound": "NH2—REGRRDAPGRAGG-NH2 (H-REGRRDAPGRAGG-NH2) [SEQ ID NO: 12]", "values": [{"measurement": "therapeutic effect on EAE clinical score (severity of motoric impairment)", "setting": "[1]", "result": "significant therapeutic effect"}]}
{"compound": "C[C@H](NC(=O)[C@H](CCCNC(=N)N)NC(=O)[C@H](CCCNC(=N)N)NC(=O)CN)C(=O)N[C@@H](C)C(=O)N1CCC[C@H]1C(=O)NCC(=O)N[C@@H](CCCNC(=N)N)C(=O)NC(C)(C)C(=O)NCC(=O)NCC(N)=O", "note": "[SEQ ID NO:5, NH2-G^1RRAAPGR-Aib-GG^11-NH2] (H-GRRAAPGR[Aib]GG-NH2)", "values": [{"measurement": "neuroprotection compared with the unsubstituted NRP", "setting": "cerebellar microexplants; 3-NP, FIGS. 1 and 4", "result": "more neuroprotective than the unsubstituted NRP"}, {"measurement": "concentration of maximal effect on 3-NP-induced neurotoxicity", "setting": "cerebellar microexplants; FIG. 1, n=4", "result": "about 100 fM"}, {"measurement": "threshold concentration for decrease of 3-NP-induced neurotoxicity", "setting": "cerebellar microexplants; FIG. 1, n=4", "result": "below 1 fM"}, {"measurement": "decrease of 3-NP-induced neurotoxicity (cells having neurites)", "setting": "cerebellar microexplants; different concentrations, 0.5 mM 3-NP, p<0.001, n=4 each, FIG. 1", "result": "decreased 3-NP-induced neurotoxicity in a concentration dependent fashion"}, {"measurement": "neuroprotection after exposure to 3-NP, larger set of data", "setting": "cerebellar microexplants", "result": "protect neurons from dying"}, {"measurement": "longest survival of treated mice", "setting": "[2]; Study 1, 40 μg/kg 1/day i.p., vehicle all dead by day 143, FIG. 8A", "result": "up to 156 days"}, {"measurement": "day at which treated mice began dying", "setting": "[2]; Study 1, 40 μg/kg 1/day i.p., vehicle day 120, FIG. 8A, p<0.01", "result": 131, "unit": "days"}, {"measurement": "longest survival of treated mice", "setting": "[2]; Study 2, 0.4 μg/kg 1/day i.p., vehicle all dead at day 154, FIG. 8B", "result": "up to 189 days"}, {"measurement": "day at which treated mice began to die", "setting": "[2]; Study 2, 0.4 μg/kg 1/day i.p., vehicle day 120, FIG. 8B", "result": 125, "unit": "days"}, {"measurement": "lifetime of mice suffering from the ALS-like disorder", "setting": "[2]; two studies, 40 μg/kg or 0.4 μg/kg 1/day i.p. from disease onset, FIGS. 8A and 8B", "result": "significant extension of lifetime"}, {"measurement": "stability in storage (retention of neuroprotective activity)", "setting": "cerebellar explants", "result": "not statistically different; also recorded: stable under storage conditions"}, {"measurement": "neuroprotective effect against 3-NP after storage at −4° C.", "setting": "cerebellar explants", "result": "retained its neuroprotective effect"}, {"measurement": "neuroprotective effect against 3-NP after storage at −20° C.", "setting": "cerebellar explants", "result": "neuroprotective effects similar to those found for SEQ ID NO:1"}, {"measurement": "motor deficits (beam walking score) versus control group", "setting": "[3]; Experiment I: peptide 4 μg/kg/day, day 16 after start of pyridoxine-intoxication, p<0.05, FIG. 6", "result": "significantly less motor deficits than the control group"}, {"measurement": "motor deficits (beam walking score) versus vehicle", "setting": "[3]; peptide 40 ng/kg/day i.p. 10 days, p<0.05, FIG. 6", "result": "attenuated motor deficits"}, {"measurement": "motor deficits (beam walking score) versus vehicle", "setting": "[3]; peptide 4 μg/kg/day i.p. 10 days, p<0.01, FIG. 6", "result": "attenuated motor deficits"}, {"measurement": "motor deficits (beam walking score) versus control group", "setting": "[3]; Experiment II: pyridoxine 1200 mg/kg/day 4 days, peptide 4 μg/kg/day 4 days, day 5, p<0.001, FIG. 7", "result": "highly significantly attenuation of motor deficits"}, {"measurement": "tolerability", "setting": "[3]; rats, 4 μg/kg/day", "result": "well tolerated"}]}
{"compound": "NH2-G^1RRAAPGRANG^11-NH2 (H-GRRAAPGRANG-NH2) [SEQ ID NO: 6]", "values": [{"measurement": "neuroprotection in in vitro model of neural toxicity induced by 3-NP", "setting": "cerebellar microexplants; 3-NP", "result": "neuroprotective"}]}
{"compound": "AcNH-RRAAPGRAGG^11-NH2 (Ac-RRAAPGRAGG-NH2) [SEQ ID NO: 7]", "values": [{"measurement": "neuroprotection in in vitro model of neural toxicity induced by 3-NP", "setting": "cerebellar microexplants; 3-NP", "result": "neuroprotective"}]}
{"compound": "H-GR[dR]AAPGRAGG-NH2 [SEQ ID NO: 8]", "values": [{"measurement": "neuroprotection in in vitro model of neural toxicity induced by 3-NP", "setting": "cerebellar microexplants; 3-NP", "result": "neuroprotective"}]}
